The text below walks through data of ChEMBL document CHEMBL3769364, “Synthesis and structure-activity relationship studies of novel 3,9-substituted α-carboline derivatives with high cytotoxic activity against colorectal cancer cells” (Eur J Med Chem, 2016).

The nature of test [1]: Cytotoxicity against human H460 cells after 48 hrs by MTT assay. The conditions noted are these: NCI-H460, 48 h. Background: Tetrazolium dyes change colour on reduction, which living cells bring about.
Test [2] is described as follows: Cytotoxicity against human HL60 cells after 48 hrs by MTT assay. Conditions: HL-60, 48 h.
For the next test, the system named is Detroit 551. Kind of test: Cytotoxicity against human Detroit 551 cells after 48 hrs by MTT assay. The conditions noted are these: Detroit 551, 48 h.
Test [3] is described as follows: Cytotoxicity against human COLO205 cells after 48 hrs by MTT assay. The conditions noted are these: COLO 205, 48 h.
Test [4] can be described thus: Cytotoxicity against human Hep3B cells after 48 hrs by MTT assay.
The next test has as its system A498. Kind of test: Cytotoxicity against human A498 cells after 48 hrs by MTT assay. Conditions: A498, 48 h.

Some results are limits rather than exact numbers.

The IC50 is the concentration that gives 50% inhibition. In the case of `COC(=O)c1cnc2c(c1)c1ccccc1n2Cc1ccc(F)cc1F`, the IC50 (in test [1]; in test [2]; in the test on Detroit 551; in test [3]; in test [4]; in the test on A498) was above 50 µM in each case.
Consider `O=C(O)c1cnc2c(c1)c1ccccc1n2Cc1ccccc1`, for which the IC50 in test [1] was above 100 µM; in test [2], above 100 µM; in the test with Detroit 551, above 100 µM; in test [3] it was above 50 µM; in test [4], above 100 µM; in the test on A498, above 50 µM.
Consider `COC(=O)c1cnc2c(c1)c1ccccc1n2Cc1ccc(F)cc1`, for which the IC50 (in test [1]; in test [2]; in the test with Detroit 551; in test [3]; in test [4]; in the test on A498) was above 50 µM each time.
Turning to `COC(=O)c1cnc2c(c1)c1ccccc1n2Cc1cccs1`, the IC50 (in test [1]; in test [2]; with Detroit 551; in test [3]; in test [4]; in the test with A498) was above 50 µM in each case.
As to `COC(=O)c1cnc2c(c1)c1ccccc1n2Cc1ccc(Cl)cc1Cl`, the IC50 (in test [1]; in test [2]; in the test with Detroit 551; in test [3]; in test [4]; in the test on A498) was above 50 µM each time.
As for `COC(=O)c1cnc2c(c1)c1ccccc1n2Cc1ccoc1`, the IC50 (in test [1]; in test [2]; in the test on Detroit 551; in test [3]; in test [4]; in the test on A498) was above 50 µM throughout.
Consider `COC(=O)c1cnc2c(c1)c1ccccc1n2Cc1c(Cl)cccc1Cl`, for which the IC50 (in test [1]; in test [2]; with Detroit 551; in test [3]; in test [4]; with A498) was above 50 µM each time.
As for `COC(=O)c1cnc2c(c1)c1ccccc1n2Cc1ccsc1`, the IC50 (in test [1]; in test [2]; in the test on Detroit 551; in test [3]; in test [4]; in the test on A498) was above 50 µM throughout.
Turning to `COC(=O)c1cnc2c(c1)c1ccccc1n2Cc1cc(F)cc(F)c1`, the IC50 (in test [1]; in test [2]; with Detroit 551; in test [3]; in test [4]; with A498) was above 50 µM in each case.
In the case of `OCc1cnc2c(c1)c1ccccc1n2Cc1ccco1`, the IC50 (in test [1]; in test [2]; with Detroit 551; in test [3]; in test [4]; with A498) was above 50 µM throughout.
